Experimental findings from the NIST ThermoML archive (doi:10.1016/j.fluid.2009.08.017) are described below.

This data set can be described thus: activity coefficient (dimensionless); of the first substance listed, at infinite dilution; xn = mol fraction of the nth substance listed. As to conditions: 101 kPa, Liquid, Chromatography, x1 = 0.

Structures are written as SMILES. ± gives the expanded uncertainty stated by the source.

For the molecule `CCCCCC` [hexane] + CCCCCCOCn1cc[n+](COCCCCCC)c1.O=S(=O)([N-]S(=O)(=O)C(F)(F)F)C(F)(F)F, the activity coefficient (298.15 K) came to 3.22 ± 0.22; the activity coefficient (308.15 K) worked out at 3.13 ± 0.21; the activity coefficient (318.15 K) is 3.04 ± 0.21; the activity coefficient (328.15 K) worked out at 2.97 ± 0.2; the activity coefficient (338.15 K) turned out to be 2.9 ± 0.2; the activity coefficient (348.15 K) was 2.83 ± 0.19. Also, the activity coefficient runs as follows: (358.15 K) 2.77 ± 0.19; (368.15 K) 2.72 ± 0.19.

As to `C#CCCCC` [1-hexyne] + CCCCCCOCn1cc[n+](COCCCCCC)c1.O=S(=O)([N-]S(=O)(=O)C(F)(F)F)C(F)(F)F, the activity coefficient runs as follows: (298.15 K) 1.16 ± 0.074; (308.15 K) 1.17 ± 0.075; (318.15 K) 1.17 ± 0.075; (328.15 K) 1.18 ± 0.075; (338.15 K) 1.18 ± 0.076; (348.15 K) 1.19 ± 0.076. Also, the activity coefficient came to 1.19 ± 0.076 (358.15 K) and 1.19 ± 0.076 (368.15 K).

`C1CCOC1` [tetrahydrofuran] + CCCCCCOCn1cc[n+](COCCCCCC)c1.O=S(=O)([N-]S(=O)(=O)C(F)(F)F)C(F)(F)F: the activity coefficient was determined as 0.294 ± 0.031 (298.15 K); 0.304 ± 0.031 (308.15 K); 0.314 ± 0.031 (318.15 K); 0.324 ± 0.032 (328.15 K); 0.333 ± 0.032 (338.15 K); 0.343 ± 0.032 (348.15 K). Moreover, the activity coefficient stood at 0.352 ± 0.032 (358.15 K) and 0.36 ± 0.033 (368.15 K).

As for `Cc1cccc(C)c1` [1,3-dimethylbenzene] + CCCCCCOCn1cc[n+](C)c1.O=S(=O)([N-]S(=O)(=O)C(F)(F)F)C(F)(F)F, the activity coefficient by setting is: (318.15 K) 1.45 ± 0.095; (328.15 K) 1.46 ± 0.096; (338.15 K) 1.47 ± 0.096; (348.15 K) 1.48 ± 0.097; (358.15 K) 1.48 ± 0.098; (368.15 K) 1.49 ± 0.098.

`COC(C)(C)C` [2-methoxy-2-methylpropane] + CCCCCCOCn1cc[n+](COCCCCCC)c1.O=S(=O)([N-]S(=O)(=O)C(F)(F)F)C(F)(F)F: the activity coefficient runs as follows: (298.15 K) 0.759 ± 0.05; (308.15 K) 0.78 ± 0.051; (318.15 K) 0.801 ± 0.052; (328.15 K) 0.821 ± 0.053; (338.15 K) 0.841 ± 0.054; (348.15 K) 0.859 ± 0.055. In addition, the activity coefficient turned out to be 0.877 ± 0.056 (358.15 K) and 0.896 ± 0.057 (368.15 K).

For the molecule `C1CCCC1` [cyclopentane] + CCCCCCOCn1cc[n+](COCCCCCC)c1.O=S(=O)([N-]S(=O)(=O)C(F)(F)F)C(F)(F)F, the activity coefficient (298.15 K) is 1.84 ± 0.12; the activity coefficient (308.15 K) is 1.78 ± 0.12; the activity coefficient (318.15 K) was 1.74 ± 0.12; the activity coefficient (328.15 K) stood at 1.69 ± 0.11; the activity coefficient (338.15 K) was 1.65 ± 0.11; the activity coefficient (348.15 K) was 1.61 ± 0.11. Moreover, the activity coefficient runs as follows: (358.15 K) 1.57 ± 0.1; (368.15 K) 1.54 ± 0.1.

As for `C=CCCCCC` [1-heptene] + CCCCCCOCn1cc[n+](COCCCCCC)c1.O=S(=O)([N-]S(=O)(=O)C(F)(F)F)C(F)(F)F, the activity coefficient was determined as 2.7 ± 0.18 (298.15 K); 2.64 ± 0.18 (308.15 K); 2.59 ± 0.18 (318.15 K); 2.54 ± 0.17 (328.15 K); 2.49 ± 0.17 (338.15 K); 2.45 ± 0.17 (348.15 K). For the same molecule, the activity coefficient is, setting by setting: (358.15 K) 2.41 ± 0.16; (368.15 K) 2.37 ± 0.16.

Consider `Cc1cccc(C)c1` [1,3-dimethylbenzene] + CCCCCCOCn1cc[n+](COCCCCCC)c1.O=S(=O)([N-]S(=O)(=O)C(F)(F)F)C(F)(F)F, for which the activity coefficient is, setting by setting: (318.15 K) 0.944 ± 0.06; (328.15 K) 0.946 ± 0.06; (338.15 K) 0.948 ± 0.06; (348.15 K) 0.951 ± 0.06; (358.15 K) 0.953 ± 0.06; (368.15 K) 0.955 ± 0.06.

Take `C1CCCCCC1` [cycloheptane] + CCCCCCOCn1cc[n+](COCCCCCC)c1.O=S(=O)([N-]S(=O)(=O)C(F)(F)F)C(F)(F)F: the activity coefficient came out at 2.71 ± 0.18 (298.15 K); 2.6 ± 0.18 (308.15 K); 2.5 ± 0.17 (318.15 K); 2.41 ± 0.16 (328.15 K); 2.33 ± 0.16 (338.15 K); 2.25 ± 0.15 (348.15 K). The activity coefficient was found to be 2.19 ± 0.15 (358.15 K) and 2.12 ± 0.14 (368.15 K).

Regarding `C#CCCCCC` [1-heptyne] + CCCCCCOCn1cc[n+](C)c1.O=S(=O)([N-]S(=O)(=O)C(F)(F)F)C(F)(F)F, the activity coefficient reads like this: (298.15 K) 2.44 ± 0.17; (308.15 K) 2.45 ± 0.17; (318.15 K) 2.45 ± 0.17; (328.15 K) 2.46 ± 0.17; (338.15 K) 2.47 ± 0.17; (348.15 K) 2.48 ± 0.17. For the same molecule, the activity coefficient is, setting by setting: (358.15 K) 2.48 ± 0.17; (368.15 K) 2.49 ± 0.17.

Take `CCCCCC` [hexane] + CCCCCCOCn1cc[n+](C)c1.O=S(=O)([N-]S(=O)(=O)C(F)(F)F)C(F)(F)F: the activity coefficient (298.15 K) came to 8.36 ± 0.57; the activity coefficient (308.15 K) worked out at 7.96 ± 0.54; the activity coefficient (318.15 K) came out at 7.59 ± 0.52; the activity coefficient (328.15 K) was 7.27 ± 0.5; the activity coefficient (338.15 K) was 6.98 ± 0.48; the activity coefficient (348.15 K) is 6.71 ± 0.46. Further, the activity coefficient is, setting by setting: (358.15 K) 6.46 ± 0.44; (368.15 K) 6.24 ± 0.43.

As for `C1CCCCCC1` [cycloheptane] + CCCCCCOCn1cc[n+](C)c1.O=S(=O)([N-]S(=O)(=O)C(F)(F)F)C(F)(F)F, the activity coefficient is, setting by setting: (298.15 K) 6.51 ± 0.44; (308.15 K) 6.15 ± 0.42; (318.15 K) 5.8 ± 0.4; (328.15 K) 5.49 ± 0.37; (338.15 K) 5.23 ± 0.36; (348.15 K) 5.02 ± 0.34. The activity coefficient by setting is: (358.15 K) 4.79 ± 0.33; (368.15 K) 4.6 ± 0.31.

On to `O` [water] + CCCCCCOCn1cc[n+](C)c1.O=S(=O)([N-]S(=O)(=O)C(F)(F)F)C(F)(F)F, for which the activity coefficient is, setting by setting: (298.15 K) 4.37 ± 0.3; (308.15 K) 3.81 ± 0.26; (318.15 K) 3.32 ± 0.23; (328.15 K) 2.9 ± 0.2; (338.15 K) 2.57 ± 0.17; (348.15 K) 2.28 ± 0.16. The activity coefficient (358.15 K) was found to be 2.04 ± 0.14.

In the case of `C1CCCCC1` [cyclohexane] + CCCCCCOCn1cc[n+](COCCCCCC)c1.O=S(=O)([N-]S(=O)(=O)C(F)(F)F)C(F)(F)F, the activity coefficient stood at 2.32 ± 0.16 (298.15 K); 2.22 ± 0.15 (308.15 K); 2.15 ± 0.15 (318.15 K); 2.08 ± 0.14 (328.15 K); 2.01 ± 0.14 (338.15 K); 1.94 ± 0.13 (348.15 K). Further, the activity coefficient (358.15 K) came out at 1.89 ± 0.13 and the activity coefficient (368.15 K) amounted to 1.84 ± 0.12.

On to `C1CCCCC1` [cyclohexane] + CCCCCCOCn1cc[n+](C)c1.O=S(=O)([N-]S(=O)(=O)C(F)(F)F)C(F)(F)F, for which the activity coefficient worked out at 5.44 ± 0.37 (298.15 K); 5.14 ± 0.35 (308.15 K); 4.87 ± 0.33 (318.15 K); 4.63 ± 0.32 (328.15 K); 4.43 ± 0.3 (338.15 K); 4.24 ± 0.29 (348.15 K). Moreover, the activity coefficient turned out to be 4.07 ± 0.28 (358.15 K) and 3.91 ± 0.27 (368.15 K).

`CCCCCCCC` [octane] + CCCCCCOCn1cc[n+](COCCCCCC)c1.O=S(=O)([N-]S(=O)(=O)C(F)(F)F)C(F)(F)F: the activity coefficient is, setting by setting: (298.15 K) 4.8 ± 0.33; (308.15 K) 4.62 ± 0.31; (318.15 K) 4.45 ± 0.3; (328.15 K) 4.3 ± 0.29; (338.15 K) 4.16 ± 0.28; (348.15 K) 4.03 ± 0.27. Also, the activity coefficient was found to be 3.92 ± 0.27 (358.15 K) and 3.81 ± 0.26 (368.15 K).

`CCCOCCC` [dipropyl ether] + CCCCCCOCn1cc[n+](C)c1.O=S(=O)([N-]S(=O)(=O)C(F)(F)F)C(F)(F)F: the activity coefficient by setting is: (298.15 K) 2.92 ± 0.2; (308.15 K) 2.89 ± 0.2; (318.15 K) 2.87 ± 0.2; (328.15 K) 2.85 ± 0.19; (338.15 K) 2.83 ± 0.19; (348.15 K) 2.81 ± 0.19. Besides, the activity coefficient by setting is: (358.15 K) 2.79 ± 0.19; (368.15 K) 2.77 ± 0.19.

`C#CCCC` [1-pentyne] + CCCCCCOCn1cc[n+](COCCCCCC)c1.O=S(=O)([N-]S(=O)(=O)C(F)(F)F)C(F)(F)F: the activity coefficient was found to be 0.992 ± 0.062 (298.15 K); 0.997 ± 0.062 (308.15 K); 1 ± 0.063 (318.15 K); 1.01 ± 0.063 (328.15 K); 1.01 ± 0.063 (338.15 K); 1.02 ± 0.064 (348.15 K). The activity coefficient was found to be 1.02 ± 0.064 (358.15 K) and 1.02 ± 0.064 (368.15 K).

Turning to `CCCCCCC` [heptane] + CCCCCCOCn1cc[n+](COCCCCCC)c1.O=S(=O)([N-]S(=O)(=O)C(F)(F)F)C(F)(F)F, the activity coefficient amounted to 3.94 ± 0.27 (298.15 K); 3.81 ± 0.26 (308.15 K); 3.68 ± 0.25 (318.15 K); 3.57 ± 0.24 (328.15 K); 3.46 ± 0.24 (338.15 K); 3.36 ± 0.23 (348.15 K). The activity coefficient (358.15 K) came out at 3.27 ± 0.22 and the activity coefficient (368.15 K) was 3.19 ± 0.22.

With `Cc1ccc(C)cc1` [1,4-dimethylbenzene] + CCCCCCOCn1cc[n+](C)c1.O=S(=O)([N-]S(=O)(=O)C(F)(F)F)C(F)(F)F, the activity coefficient runs as follows: (318.15 K) 1.46 ± 0.096; (328.15 K) 1.47 ± 0.097; (338.15 K) 1.48 ± 0.097; (348.15 K) 1.49 ± 0.098; (358.15 K) 1.5 ± 0.098; (368.15 K) 1.5 ± 0.099.
